PubChem BioAssay AID330 (DTP/NCI, 2004)
Where “and” joins values, the source holds several entries; their conditions need not be identical. Identical values can stand only once. Toxic doses and inconclusive results are not listed.

Tested on: P388 leukemia ip, CD2F1 mice, survival T/C
Assay: NCI In Vivo Anticancer Drug Screen. Data for tumor model P388 Leukemia (intraperitoneal) in CD2F1 (CDF1) mice
Conditions: endpoint: median survival time, higher = longer survival
How it was run: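 Mice carrying the transplanted tumor received test compound or vehicle. Survival was recorded in each group, and the value is the treated-group measurement divided by that of the vehicle-treated control group.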

[1] = dose: 50.0 mg/kg/injection, schedule: Q01DX005 (ip), vehicle: saline with Tween-80
[2] = dose: 100.0 mg/kg/injection, schedule: Q01DX005 (ip), vehicle: saline with Tween-80
[3] = dose: 200.0 mg/kg/injection, schedule: Q01DX005 (ip), vehicle: saline with Tween-80
[4] = dose: 25.0 mg/kg/injection, schedule: Q04DX002 (ip), vehicle: saline with Tween-80
[5] = dose: 50.0 mg/kg/injection, schedule: Q04DX002 (ip), vehicle: saline with Tween-80

For `COc1ccc(/C=C/c2ccc3ccccc3[n+]2C)cc1Br`, the T/C (dose: 12.5 mg/kg/injection, schedule: Q01DX005 (ip), vehicle: Klucel (hydroxypropylcellulose) (HPC)) was 113 % of control, the T/C (dose: 25.0 mg/kg/injection, schedule: Q01DX005 (ip), vehicle: Klucel (hydroxypropylcellulose) (HPC)) was 113 % of control and the T/C (dose: 50.0 mg/kg/injection, schedule: Q01DX005 (ip), vehicle: Klucel (hydroxypropylcellulose) (HPC)) was 113 % of control and 119 % of control.

`COc1cc2c(cc1C(C)(C)c1ccccc1)OCO2` was tested, and the T/C [1] was 99 % of control, the T/C [2] was 100 % of control and the T/C [3] was 101 % of control.

In the case of `COC(=O)C1(C)N=NN=C1N(C)C` (stereo not drawn), the T/C (dose: 100.0 mg/kg/injection, schedule: Q04DX002 (ip), vehicle: saline) is reported as 101 % of control, the T/C (dose: 200.0 mg/kg/injection, schedule: Q04DX002 (ip), vehicle: saline) is reported as 100 % of control and the T/C (dose: 400.0 mg/kg/injection, schedule: Q04DX002 (ip), vehicle: saline) is reported as 101 % of control.

For `Clc1cccc2c(SCCCCCCCSc3c4ccccc4nc4c(Cl)cccc34)c3ccccc3nc12`, the T/C (dose: 60.0 mg/kg/injection, schedule: Q01DX005 (ip), vehicle: Klucel (hydroxypropylcellulose) (HPC)) was 93 % of control, the T/C (dose: 120.0 mg/kg/injection, schedule: Q01DX005 (ip), vehicle: Klucel (hydroxypropylcellulose) (HPC)) was 91 % of control and the T/C (dose: 240.0 mg/kg/injection, schedule: Q01DX005 (ip), vehicle: Klucel (hydroxypropylcellulose) (HPC)) was 90 % of control.

With `O=C1CC(C2(c3ccccc3)SCCCS2)CO1` (stereo not drawn) the T/C (dose: 100.0 mg/kg/injection, schedule: Q01DX001 (ip), vehicle: Klucel (hydroxypropylcellulose) (HPC)) was 99 % of control, the T/C (dose: 200.0 mg/kg/injection, schedule: Q01DX001 (ip), vehicle: Klucel (hydroxypropylcellulose) (HPC)) was 98 % of control and the T/C (dose: 400.0 mg/kg/injection, schedule: Q01DX001 (ip), vehicle: Klucel (hydroxypropylcellulose) (HPC)) was 100 % of control.

With `C/C(=N\NC(N)=Nc1ccccc1)c1ccc(Cl)c(Cl)c1` the T/C [4] was 100 % of control, the T/C [5] was 101 % of control and the T/C (dose: 100.0 mg/kg/injection, schedule: Q04DX002 (ip), vehicle: saline with Tween-80) was 110 % of control.

With `NNc1ncc(S(=O)(=O)Cc2ccc3c(c2)OCO3)c(N)n1` the T/C (dose: 100.0 mg/kg/injection, schedule: Q01DX001 (ip), vehicle: saline) was 101 % of control, the T/C (dose: 200.0 mg/kg/injection, schedule: Q01DX001 (ip), vehicle: saline) was 98 % of control and the T/C (dose: 400.0 mg/kg/injection, schedule: Q01DX001 (ip), vehicle: saline) was 98 % of control.

In the case of `COc1cc2c(Cl)ncnc2c(OC)c1OC`, the T/C [1] is reported as 106 % of control, the T/C [2] is reported as 106 % of control and the T/C [3] is reported as 109 % of control.

In the case of `CSc1ncc(CO)c(N)n1`, the T/C (dose: 100.0 mg/kg/injection, schedule: Q04DX003 (ip), vehicle: Klucel (hydroxypropylcellulose) (HPC)) is reported as 90 % of control, the T/C (dose: 200.0 mg/kg/injection, schedule: Q04DX003 (ip), vehicle: Klucel (hydroxypropylcellulose) (HPC)) is reported as 95 % of control and the T/C (dose: 400.0 mg/kg/injection, schedule: Q04DX003 (ip), vehicle: Klucel (hydroxypropylcellulose) (HPC)) is reported as 95 % of control.

`Cc1ccc(S(=O)CC(O)COCc2ccccc2)cc1` (stereo not drawn) was tested, and the T/C (dose: 50.0 mg/kg/injection, schedule: Q01DX009 (ip), vehicle: saline with Tween-80) was 89 % of control, the T/C (dose: 100.0 mg/kg/injection, schedule: Q01DX009 (ip), vehicle: saline with Tween-80) was 94 % of control and the T/C (dose: 200.0 mg/kg/injection, schedule: Q01DX009 (ip), vehicle: saline with Tween-80) was 91 % of control.

In the case of `NC(=S)n1nc(-c2ccccc2)c(N=Nc2cccc(Cl)c2Cl)c1-c1ccccc1`, the T/C (dose: 100.0 mg/kg/injection, schedule: Q01DX001 (ip), vehicle: saline with Tween-80) is reported as 89 % of control, the T/C (dose: 200.0 mg/kg/injection, schedule: Q01DX001 (ip), vehicle: saline with Tween-80) is reported as 94 % of control and the T/C (dose: 400.0 mg/kg/injection, schedule: Q01DX001 (ip), vehicle: saline with Tween-80) is reported as 97 % of control.

For `O=NN(CC1(O)OCC(O)C(O)C1O)C(Cc1ccccc1)C(=O)O` (stereo not drawn), the T/C (dose: 50.0 mg/kg/injection, schedule: Q01DX005 (ip), vehicle: saline) was 104 % of control, the T/C (dose: 100.0 mg/kg/injection, schedule: Q01DX005 (ip), vehicle: saline) was 103 % of control and the T/C (dose: 200.0 mg/kg/injection, schedule: Q01DX005 (ip), vehicle: saline) was 97 % of control.

In the case of `O=C1CC2C1C1C=CC2n2c(=O)n(-c3ccccc3)c(=O)n21` (stereo not drawn), the T/C (dose: 12.5 mg/kg/injection, schedule: Q04DX002 (ip), vehicle: saline with Tween-80) is reported as 98 % of control, the T/C [4] is reported as 99 % of control and the T/C [5] is reported as 101 % of control.

`CCCCC#CC(=O)O` was tested, and the T/C (dose: 50.0 mg/kg/injection, schedule: Q01DX009 (ip), vehicle: saline) was 103 % of control and the T/C (dose: 100.0 mg/kg/injection, schedule: Q01DX009 (ip), vehicle: saline) was 94 % of control.

`COC(=O)C1(CC(=O)c2ccc(Cl)cc2Cl)NC(=S)NC(=O)C1C#N` (stereo not drawn) was tested, and the T/C (dose: 60.0 mg/kg/injection, schedule: Q01DX005 (ip), vehicle: saline with Tween-80) was 91 % of control and the T/C (dose: 120.0 mg/kg/injection, schedule: Q01DX005 (ip), vehicle: saline with Tween-80) was 92 % of control.
